Assays:
Type in all cases: cell-based
[1] = system: Chlorella (KAS603); assay: Trehalose preservation, storage as liquid in sponge matrix
Description: (§1) Flask cultures (40 ml) of cells are grown to mid-log phase with a density between 3×10^6 and 3×10^7 cells/ml, and are centrifuged. Culture medium is removed after centrifugation, resulting in more concentrated algae cells. Cells are then re-suspended in fresh medium and left overnight. Cells are centrifuged again the next day in order to remove the medium, and are then re-suspended in fresh or salt water without any nutrient. The cell density of the suspension is determined prior to storage under the various treatments. Cells in 40 ml flask cultures are grown to mid-log phase with a density of between 3×10^6 and 3×10^7 cells/ml, and are centrifuged. Culture medium is removed after centrifugation, resulting in more concentrated algae cells. Cells are then re-suspended in ideal glass solution consisting of fresh culture medium and trehalose at a concentration of 0.1M, 0.3M, and 0.5M (dihydrate trehalose 100 from Hayashibara Co. Ltd, Okayama, Japan), respectively, and left overnight with mild agitation. Cells are centrifuged again to remove the ideal glass solution the next day, and are re-suspended in fresh or salt water without any nutrient. The cell density of the resulting suspension is determined prior to storage under the various treatments. (Some cells were also treated with a 0.5M sorbitol solution). In one specific embodiment, non-toxic sponges made of polyurethane matrix ([…]-plugs® from Jaece Industries, Fisher Scientific 14-127-40B), 20 mm in diameter, are cut in half length-wise to fit the wells in the BD Falcon 12-well tissue culture plates and autoclave sterilized. One sponge is placed in each well of the tissue culture plate. 2.0 ml algae cell suspension is pipetted into each well, and the sponge is squeezed with sterile forceps to produce a faster uptake of the cell suspension into the sponge. Plates are subsequently closed and placed under low light and at ambient temperature. After stored under the above preservation conditions for 5 months, algae cells can be rejuvenated by squeezing the sponges with sterile forceps to allow a complete uptake of all cells in the suspension, including those cells not in the sponge such as cells remaining in the well. Cells in the sponges are then removed from the 12-well plates and placed in 10 ml of fresh medium under light. Cell viability is determined by comparing the cell growth in control set with the experimental set. Specifically, cell counts are performed on all samples. The averaged density value (in cells per ml) for all the cultures after treatment is defined as “rejuvenation cell count.” In some samples, the percent recovery of cells immediately after storage is also determined. The formulae are illustrated as follows: Growth=(rejuvenation cell count)/(initial cell count) Cell recovery after storage=(cell density after storage)/(initial cell density), with controls set at 100% cell recovery. Viability after storage and rejuvenation in nutrient medium=(Growth of treatment)/(Growth of control)×100%, with controls set at 100% viability

[2] = system: Tetraselmis KAS633; assay: as above
Description: as §1

[3] = system: Chlorella (KAS503); assay: as above
Description: as §1

[4] = system: Chlorella (KAS603); assay: Trehalose preservation, storage by air drying on paper disk; details: for % Viability: 0M control = 100%; for Growth: final/initial density
Description: (§2) Flask cultures (40 ml) of cells are grown to mid-log phase with a density between 3×10^6 and 3×10^7 cells/ml, and are centrifuged. Culture medium is removed after centrifugation, resulting in more concentrated algae cells. Cells are then re-suspended in fresh medium and left overnight. Cells are centrifuged again the next day in order to remove the medium, and are then re-suspended in fresh or salt water without any nutrient. The cell density of the suspension is determined prior to storage under the various treatments. Cells in 40 ml flask cultures are grown to mid-log phase with a density of between 3×10^6 and 3×10^7 cells/ml, and are centrifuged. Culture medium is removed after centrifugation, resulting in more concentrated algae cells. Cells are then re-suspended in ideal glass solution consisting of fresh culture medium and trehalose at a concentration of 0.1M, 0.3M, and 0.5M (dihydrate trehalose 100 from Hayashibara Co. Ltd, Okayama, Japan), respectively, and left overnight with mild agitation. Cells are centrifuged again to remove the ideal glass solution the next day, and are re-suspended in fresh or salt water without any nutrient. The cell density of the resulting suspension is determined prior to storage under the various treatments. (Some cells were also treated with a 0.5M sorbitol solution). In one specific embodiment, algae cells can be stored under air-dry conditions using autoclaved sterilized filter paper disks (15 mm Whatman Grade 1, Fisher Scientific 09-805-1B). Specifically, after one piece of paper disk is placed into each well of BD Falcon 12-well tissue culture plates, 0.1 ml algae cell suspension is placed onto each disk. The liquid cell suspension is allowed to air dry in a laminar flow hood for 1 hour. After 1 hour, the plates are closed and placed under low light at ambient temperature. Algae stored under the above preservation conditions for 5 months can be subsequently rejuvenated by removing the paper disks from the 12-well plates and placing cells in 5 ml of fresh medium under light. Cell viability is determined by comparing the cell growth in control set with the experimental set. Specifically, cell counts are performed on all samples. The averaged density value (in cells per ml) for all the cultures after treatment is defined as “rejuvenation cell count.” In some samples, the percent recovery of cells immediately after storage is also determined. The formulae are illustrated as follows: Growth=(rejuvenation cell count)/(initial cell count) Cell recovery after storage=(cell density after storage)/(initial cell density), with controls set at 100% cell recovery. Viability after storage and rejuvenation in nutrient medium=(Growth of treatment)/(Growth of control)×100%, with controls set at 100% viability

[5] = system: Tetraselmis (KAS633); assay: as above; details: for % Viability: 0M control = 100%; for Growth: final/initial density
Description: as §2

[6] = 0.5M trehalose in F/2, 20 weeks storage in water (no nutrients)
[7] = 0.5M trehalose in F/2, 20 weeks storage, 0M control = 100%
[8] = 0.5M trehalose in F/2, 20 weeks storage, final/initial density
[9] = 0.1M trehalose in F/2, 20 weeks storage in water (no nutrients)
[10] = 0.1M trehalose in F/2, 20 weeks storage
[11] = 0.3M trehalose in F/2, 20 weeks storage in water (no nutrients)
[12] = 0.3M trehalose in F/2, 20 weeks storage
[13] = 0.5M trehalose in F/2, 20 weeks storage

OC[C@H]1O[C@H](O[C@H]2O[C@H](CO)[C@@H](O)[C@H](O)[C@H]2O)[C@H](O)[C@@H](O)[C@@H]1O [trehalose, α-D-glycosyl-α-D-glycosylpyranoside]
Final density after storage and 3 weeks rejuvenation [1, 6]: 2.246 × 10^7 cells/ml
% Viability [1, 7]: (193%)
Growth [1, 8]: 0.81
Final density after storage and 3 weeks rejuvenation [2, 6]: 2.031 × 10^6 cells/ml
% Viability [2, 7]: (93%)
Growth [2, 8]: 0.14
Final density after storage and 3 weeks rejuvenation [3, 6]: 6.565 × 10^7 cells/ml
Growth [3, 8]: 2.88
Cell colors on paper/in medium [4, 9]: Green/green
Final density after storage and 3 weeks rejuvenation [4, 9]: 2.278 × 10^7 cells/ml
% Viability [4, 10]: (133%)
Growth [4, 10]: 1.433
Final density after storage and 3 weeks rejuvenation [4, 11]: 4.440 × 10^7 cells/ml
% Viability [4, 12]: (144%)
Growth [4, 12]: 1.55
Final density after storage and 3 weeks rejuvenation [4, 6]: 3.140 × 10^7 cells/ml
% Viability [4, 13]: (133)%
Growth [4, 13]: 1.43
Cell colors on paper/in medium [5, 9]: Green/green
Final density after storage and 3 weeks rejuvenation [5, 9]: 8.60 × 10^6 cells/ml
% Viability [5, 10]: (80%)
Growth [5, 10]: 5.51
Final density after storage and 3 weeks rejuvenation [5, 11]: 2.15 × 10^6 cells/ml
% Viability [5, 12]: (19%)
Growth [5, 12]: 1.32
Cell colors on paper/in medium [5, 6]: White/clear
Final density after storage and 3 weeks rejuvenation [5, 6]: 1.915 × 10^6 cells/ml
% Viability [5, 13]: (16%)
Growth [5, 13]: 1.10
